Assay results taken from US20080118980A1, “Estrogen Enhancing Differentiation of Human Mesenchymal Stromal Cells and Adipose-derived Stromal Cells” (The Board of Trustees of the University of Illinois,, priority 2006, published 2008).

Experiments:
human bone marrow MSCs = assay: Osteogenic differentiation of human bone marrow MSCs modulated by E2 (Example 1); type: cell-based
Text: Human bone marrow MSCs were provided by the Center for Gene Therapy of Tulane University. The MSCs were isolated from bone marrow cells donated by a healthy adult volunteer. The passage-1 cells were recovered and expanded by culture in a basic medium composed of DMEM, 10% FBS and 1% antibiotic-antimycotic. Human ASCs were isolated from a healthy person with a lipo-aspirated surgery. The abdomen subcutaneous adipose tissue was finely minced and then digested with 0.075 wt % collagenase type I at 37° C. for 45 min. The cells were then collected by filtration with a cell strainer with pore size of 100 μm diameter. The ASCs were expanded in basic DMEM medium. Upon reaching 80-90% confluence of human MSCs and ASCs, the cells were trypsinized, counted, and subcultured at a density of 10^5 cells/100 mm dish. The cells used for study were passage-2. For osteogenic differentiation, the cells were seeded at a cell density of 10^4 cells/cm2 on 12-well plates and 100-mm petri dishes. Upon reaching 70% confluence, counting as day-0, the cells were exposed to osteogenic differentiation medium supplemented with either 10 nM or 10 pM E2. The osteogenic differentiation medium consisted of basic medium supplemented with 100 nM dexamethasone, 10 mM β-glycerophosphate, and 0.05 mM ascorbic acid-2-phosphate. At the defined time, the cells were collected and analyzed for osteogenic gene expression and differentiation potentials.
The cultured cells in 12-well plates were washed twice with PBS, suspended and lysed in 1% Triton-X100 solution. The collected cells were subsequently homogenized using sonication. The DNA content was determined by a fluorometric assay (Bio-Rad). ALP and calcium content were measured by spectrophotometry with a calorimetric kit according to the manufacturers' instructions (Sigma).
RNA was extracted from differentiated cells using TRizol reagent (Invitrogen). 5 μg of total RNA was converted to single stranded cDNA using a commercial cDNA synthesis kit. Aliquots of the cDNA were amplified with Ampli-Taq DNA polymerase for ALP, osteocalcin (OCN), core binding factor alpha1 (cbfa1), peroxisome proliferator activated receptors gamma (PPARγ)-2, estrogen receptors (ER) alpha (α) and beta (β), and housekeeping gene GAPDH. 40 cycles were used, each consisting of 45 sec of denaturation at 95° C., 45 sec of annealing at 58° C., and 1 min of polymerization at 72° C.

human ASCs = assay: Adipogenic differentiation of ASCs modulated by E2 (Example 2); type: cell-based; details: for increase of elution of Oil-O-Red staining: vs differentiation without estrogen, FIG. 7C
Procedure: Because estrogen receptors (ERs) exist in adipose tissues (Dieudonne et al. (2004) Am J Physiol Cell Physiol. 286:C655-661), it is hypothesized that estrogen can also modulate the differentiation potentials of ASCs. All the experiments using human ASCs were performed under an approved IRB protocol of the University of Illinois at Chicago. Human abdomen subcutaneous adipose tissue was obtained from a healthy person with lipo-aspirated surgery. ASCs were isolated from adipose tissue according to previous studies (Hong et al. (2006) Cells Tissues Organs. 183 (3):133-40). Briefly, adipose tissue was finely minced and then digested with 0.075 wt % collagenase type I (Sigma, St Louis, Mo.) at 37° C. for 45 min with intermittent shaking. The cells were collected by filtration with a cell strainer with pore size of 100 μm diameter (Fisher Scientific, Barrington, Ill.). The harvested cells were cultured in a Dulbecco's Modified Eagle's Medium (DMEM), 15% fetal bovine serum (FBS) and 1% antibiotic-antimycotic at 10^6 cells/100 mm dish. Upon reaching 80-90% confluence, the isolated cells were trypsinized, counted, and subcultured at a density of 10^5 cells/100 mm dish as passage-1. The cells used for study are passage-3.
The basic DMEM medium supplemented with 50 nM of dexamethasone, […] and 5 mM of isobutyl-methylxanthine (IBMX) was used to differentiate ASCs into adipocytes (Hong et al. (2005) Ann Biomed Eng. 33:511-517). At 70% confluence of ASCs in 12-well plates, the basic DMEM medium was exchanged for the adipogenic differentiation medium. The effects of estrogen on adipogenic differentiation were observed after E2 supplements at concentrations ranging from 10^−8 to 10^−11M. On day 4, the cells were collected for analysis of adipogenic and ER gene expressions. On day 7, adipogenic differentiation of ASCs modulated by estrogen was analyzed by Oil-O-Red staining and quantitative measurements. Each treatment group included four samples.
On the defined day, cells cultured in 12-well plates were washed twice with phosphate buffered solution (PBS), suspended and lysed in 1% Triton-X100 solution (Sigma, St. Louis, Mo.). The collected cells were subsequently homogenized using sonication (Dismembrator Model 100, Fisher Scientific, Barrington, Ill.). The DNA content in the cells was determined by a fluorometric assay using a spectrofluorometer and DNA quantification kit (Hoechst 33258, Bio-Rad, Hercules, Calif.). The total protein concentrations of lysates were measured by a simple colorimetric assay based on the Bradford dye-binding procedure (Bio-Rad, Hercules, Calif.). The amount of protein was normalized by the unit of DNA.
After 7 days of incubation with adipogenic differentiation medium supplemented with different concentrations of E2, cultured cells were fixed in 10% neutral buffered formalin for 15 min and washed with PBS twice. Cells were immersed in a 60% Oil-O-Red solution in PBS (Sigma, St Louis, Mo.) for 60 min. In order to quantify adipogenic potentials, the images of Oil-O-Red stained at each well were randomly taken by a digital camera connected to a computer monitor. The Oil-O-Red positive cells on the screen were double-blindly counted. Five pictures were taken from each well. The cell numbers were normalized to per mm^2. Oil-O-Red dye then was eluted by 500 μl of 100% isopropanol for each well of cultured cells. The spectrophotometric absorbance of the resulting solution was quantified at 510 nm.
Total RNA was extracted from the various differentiated cells using TRizol reagent (Invitrogen, Carlsbad, Calif.). Approximately 5 μg of total RNA was converted to single stranded cDNA using a commercial cDNA synthesis kit (Invitrogen, Carlsbad, Calif.). […]

With `C[C@]12CC[C@@H]3c4ccc(O)cc4CC[C@H]3[C@@H]1CC[C@@H]2O` [E2, 17-β estradiol] the calcium content (human bone marrow MSCs; FIG. 2C) was “significantly increased”, the ALP activities (human bone marrow MSCs; after 14 days, FIG. 2B) was “little statistical significance” and the “OCN expression (RT-PCR)” value (human bone marrow MSCs; day 7, E2 10 nM) was “only densely expressed”. For the same molecule, the “cbfa-1 expression (RT-PCR band)” value (human bone marrow MSCs; day 7, vs differentiation without estrogen supplement) was “denser band”, the “PPAR-γ2 expression (RT-PCR)” value (human bone marrow MSCs; day 7, vs standard osteogenic medium) was “inhibited” and the “cell proliferation (amount of DNA) during osteogenesis” value (human bone marrow MSCs; higher dose of E2, FIG. 2A) was “does not affect”. For the same molecule, the “ALP and von Kossa staining” value (human bone marrow MSCs; osteogenic differentiation medium supplemented with E2 (10 nM or 10 pM)) was “denser color”, the “ERβ expression (RT-PCR)” value (human ASCs; 4 days, FIG. 6) was “undetected” and the “ERα expression (RT-PCR)” value (human ASCs; 4 days, no ERα band without E2 supplement, FIG. 6) was “expressed”. For the same molecule, the DNA amount (human ASCs; 7 days adipogenic media with E2 supplements, FIG. 7A) was “decreased”, the “number of Oil-O-Red positively stained cells” value (human ASCs; 7 days, FIG. 7B) was “increased” and the “population of lipid-containing cells” value (human ASCs; ASCs after E2 supplement, Oil-O-Red staining) was “increased population”. For the same molecule, the “increase of elution of Oil-O-Red staining” value (human ASCs; estrogen 10^−8 M, 7 days) was 33.9%, the “increase of elution of Oil-O-Red staining” value (human ASCs; estrogen 10^−9 M, 7 days) was 25.5% and the “effects on adipogenesis at low concentrations” value (human ASCs; estrogen supplement at low concentrations) was “hardly observed”.
